Results published in PMC12412055, “Parallel synthesis of 5′-amino-5′-deoxy-adenosine derivatives for focused chemical space exploration and their application as methyltransferase inhibitors” (RSC Medicinal Chemistry, 2025).
Several values for one entry are separate records, joined by “and”; a condition that tells them apart may be missing. Identical values can stand only once. Like-named read-outs stand apart in the source and are kept apart here. One block for each compound: values may come before it.

Experiments:
METTL3/14 [1] = target: T1, METTL3/14 (Homo sapiens, UniProt Q86U44); assay: Fluorescence polarization (FP) FTAD displacement assay, METTL3/14; assay type: binding; conditions: for KD (METTL3/14, FP-assay) / Kd / displacement of FTAD: 50 nM FTAD, 1 μM enzyme; for KD (METTL3/14, FP-assay) / Kd: compound dilution series; for displacement of FTAD: 100 μM compound
T1 construct: human METTL3 (UniProt: Q86U44 aa 252–580); Strep tag-II (C); made in house; host or cells: E. coli BL21(DE3), pETduet-1

SARS-CoV-2 nsp14/10 = SARS-CoV-2 nsp14/10 (Severe acute respiratory syndrome coronavirus 2, UniProt P0DTD1); assay: Fluorescence polarization (FP) FTAD displacement assay, nsp14/10; assay type: binding; conditions: for displacement of FTAD: 1 μM compound; for Kd: 50 nM FTAD
nsp14/10 [2] = target: T2, nsp14/10 (Severe acute respiratory syndrome coronavirus 2, UniProt P0DTD1); conditions: cited from earlier work
nsp14/10 [3] = target: T2, nsp14/10; assay: biochemical; assay type: binding; conditions: for Kd: read-out: KD (ITC)
nsp14/10 [4] = target: T2, nsp14/10; assay: Microscale thermophoresis (MST) FTAD displacement assay; assay type: binding; conditions: 50 nM FTAD, 3-fold dilution series of nsp14/10
human DNMT2 = target: human DNMT2; design: method as in PMID 39145518; conditions: probe affinity; read-out: KD of FTAD for DNMT2; cited from earlier work
METTL3/14 [5] = target: T1, METTL3/14; design: method as in PMID 39145518; conditions: probe affinity; read-out: KD of FTAD for METTL3/14; cited from earlier work
[6] = mean ± standard deviation from duplicate measurements, 25 °C
[7] = single measurement (one of duplicates)
[8] = ligand 0.305 µM, dilution series
[9] = ligand 0.914 µM, dilution series
[10] = ligand 2.74 µM, dilution series
[11] = ligand 8.22 µM, dilution series
[12] = ligand 24.7 µM, dilution series
[13] = ligand 74.0 µM, dilution series
[14] = ligand 100 µM, triplicate wells
[15] = ligand 100 µM, triplicate wells, enzyme not printed in Table S4
[16] = 1 μM enzyme, compound dilution series, read-out: KD (nsp14/10, determined by FP-assay)

T1 sequence (Q86U44 252-580): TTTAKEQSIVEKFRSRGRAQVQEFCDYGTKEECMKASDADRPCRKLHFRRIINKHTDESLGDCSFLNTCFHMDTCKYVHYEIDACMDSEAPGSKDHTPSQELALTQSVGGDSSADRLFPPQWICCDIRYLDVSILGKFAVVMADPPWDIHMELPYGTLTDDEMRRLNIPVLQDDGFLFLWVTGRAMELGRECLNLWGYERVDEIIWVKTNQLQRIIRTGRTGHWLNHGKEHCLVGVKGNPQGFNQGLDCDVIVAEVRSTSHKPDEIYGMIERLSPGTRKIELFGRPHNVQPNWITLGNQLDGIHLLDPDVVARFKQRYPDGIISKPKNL
T1 sequence (Q9HCE5 108-444 partner limits assumed): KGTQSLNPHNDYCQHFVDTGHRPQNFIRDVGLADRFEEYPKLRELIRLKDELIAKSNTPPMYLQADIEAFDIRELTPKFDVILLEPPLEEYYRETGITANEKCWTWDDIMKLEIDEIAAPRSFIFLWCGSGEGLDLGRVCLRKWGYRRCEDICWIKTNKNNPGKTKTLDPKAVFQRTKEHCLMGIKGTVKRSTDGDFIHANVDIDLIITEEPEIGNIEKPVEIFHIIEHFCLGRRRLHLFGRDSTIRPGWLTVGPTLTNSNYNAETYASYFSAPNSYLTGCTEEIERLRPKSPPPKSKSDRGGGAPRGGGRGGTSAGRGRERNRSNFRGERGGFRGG

Compound: Nc1ncnc2c1ncn2[C@@H]1O[C@H](CNS(=O)(=O)c2ccc3ccccc3c2)[C@@H](O)[C@H]1O [Compound 34, N-(((2R,3S,4R,5R)-5-(6-Amino-9H-purin-9-yl)-3,4-dihydroxy-tetrahydrofuran-2-yl)methyl)naphthalene-2-sulfonamide]
KD (METTL3/14, FP-assay) (METTL3/14 [1]): low micromolar affinity
Kd (METTL3/14 [1]): 12900 ± 2000 nM
displacement of FTAD (METTL3/14 [1]): ~92%
displacement of FTAD (SARS-CoV-2 nsp14/10): 100%
binding and inhibition of nsp14/10 (nsp14/10 [2]): nanomolar range
KD (ITC) (nsp14/10 [3]; [6]): nanomolar range
-T∆S (ITC) (nsp14/10 [3]; [7]): 12 kcal/mol and 14.9 kcal/mol
stoichiometry n (ITC) (nsp14/10 [3]; [7]): 0.66 and 0.67
Kd (nsp14/10 [3]; [7]): 165 nM and 214 nM

Compound: Nc1ncnc2c1ncn2[C@@H]1O[C@H](CNS(=O)(=O)/C=C/c2ccccc2)[C@@H](O)[C@H]1O [Compound 35, (E)-N-(((2R,3S,4R,5R)-5-(6-Amino-9H-purin-9-yl)-3,4-di-hydroxytetrahydrofuran-2-yl)methyl)-2-phenylethene-1-sulfonamide]
displacement of FTAD (SARS-CoV-2 nsp14/10): 100%
ΔH (ITC) (nsp14/10 [3]; mean ± standard deviation from duplicate measurements): -32.86 kcal/mol
KD (ITC) (nsp14/10 [3]; [6]): nanomolar range
-T∆S (ITC) (nsp14/10 [3]; [7]): 24.6 kcal/mol and 22.5 kcal/mol
stoichiometry n (ITC) (nsp14/10 [3]; [7]): 0.42 and 0.45
Kd (nsp14/10 [3]; [7]): 151 nM and 169 nM

KD (METTL3/14, FP-assay) (METTL3/14 [1]): low micromolar affinity
Kd (METTL3/14 [1]): 16100 ± 4600 nM
displacement of FTAD (METTL3/14 [1]): ~92%
Compound: Nc1ncnc2c1ncn2[C@@H]1O[C@H](CNS(=O)(=O)c2ccc(-c3ccccc3)cc2)[C@@H](O)[C@H]1O [Compound 40, N-(((2R,3S,4R,5R)-5-(6-Amino-9H-purin-9-yl)-3,4-dihydroxy-tetrahydrofuran-2-yl)methyl)-[1,1′-biphenyl]-4-sulfonamide]

Compound: CN(C)c1cccc2c(S(=O)(=O)NC[C@H]3O[C@@H](n4cnc5c(N)ncnc54)[C@H](O)[C@@H]3O)cccc12 [Compound 42, N-(((2R,3S,4R,5R)-5-(6-Amino-9H-purin-9-yl)-3,4-dihydroxy-tetrahydrofuran-2-yl)methyl)-5-(dimethylamino)naphthalen-1-sulfonamide]
KD (METTL3/14, FP-assay) (METTL3/14 [1]): low micromolar affinity
Kd (METTL3/14 [1]): 22500 ± 1400 nM
displacement of FTAD (METTL3/14 [1]): ~92%
fluorescence polarization, raw data (METTL3/14 [1]; [8]): 144 mP and 142 mP and 140 mP
total intensity, raw data (METTL3/14 [1]; [8]): 16997 and 14743 and 15446
fluorescence polarization, raw data (METTL3/14 [1]; [9]): 131 mP and 134 mP and 139 mP
total intensity, raw data (METTL3/14 [1]; [9]): 16613 and 15443 and 18075
fluorescence polarization, raw data (METTL3/14 [1]; [10]): 128 mP and 126 mP
total intensity, raw data (METTL3/14 [1]; [10]): 15091 and 15438 and 15739
fluorescence polarization, raw data (METTL3/14 [1]; [11]): 116 mP and 113 mP and 115 mP
total intensity, raw data (METTL3/14 [1]; [11]): 16190 and 14718 and 16069
fluorescence polarization, raw data (METTL3/14 [1]; [12]): 90 mP and 84 mP and 93 mP
total intensity, raw data (METTL3/14 [1]; [12]): 17750 and 16617 and 17703
fluorescence polarization, raw data (METTL3/14 [1]; [13]): 40 mP and 43 mP and 54 mP
total intensity, raw data (METTL3/14 [1]; [13]): 17281 and 16313 and 18091
total intensity, raw data (METTL3/14 [1]; [14]): 18205 and 16177 and 16524
fluorescence polarization, raw data (METTL3/14 [1]; [15]): 44 mP and 42 mP and 39 mP
fluorescence polarization, raw data (METTL3/14 [1]; ligand 222 µM, dilution series): 23 mP and 28 mP and 40 mP
total intensity, raw data (METTL3/14 [1]; ligand 222 µM, dilution series): 22984 and 20625 and 20534
fluorescence polarization, raw data (METTL3/14 [1]; ligand 666 µM, dilution series): 30 mP and 36 mP and 33 mP
total intensity, raw data (METTL3/14 [1]; ligand 666 µM, dilution series): 25251 and 24796 and 26626

Compound: Nc1ncnc2c1ncn2[C@@H]1O[C@H](CNS(=O)(=O)c2ccc(Br)c([N+](=O)[O-])c2)[C@@H](O)[C@H]1O [Compound 44, N-(((2R,3S,4R,5R)-5-(6-Amino-9H-purin-9-yl)-3,4-dihydroxytetrahydrofuran-2-yl)methyl)-4-bromo-3-nitrobenzenesulfon amide]
inhibition of nsp14/10 (nsp14/10 [2]): low micromolar range

Compound: Nc1ncnc2c1ncn2[C@@H]1O[C@H](CNS(=O)(=O)c2ccc(Cl)c(C(F)(F)F)c2)[C@@H](O)[C@H]1O [Compound 46, N-(((2R,3S,4R,5R)-5-(6-Amino-9H-purin-9-yl)-3,4-dihydroxy-tetrahydrofuran-2-yl)methyl)-4-chloro-3-(trifluoromethyl) benzenesulfonamide]
displacement of FTAD (SARS-CoV-2 nsp14/10): 100%
KD (ITC) (nsp14/10 [3]; [6]): nanomolar range
Kd (nsp14/10 [3]; [6]): 106 ± 6 nM
-T∆S (ITC) (nsp14/10 [3]; [7]): 15.8 kcal/mol and 13.8 kcal/mol
stoichiometry n (ITC) (nsp14/10 [3]; [7]): 0.43 and 0.44
Kd (nsp14/10 [3]; [7]): 111 nM and 100 nM

Compound: Cc1ccc(S(=O)(=O)NC[C@H]2O[C@@H](n3cnc4c(N)ncnc43)[C@H](O)[C@@H]2O)cc1[N+](=O)[O-] [Compound 47, N-(((2R,3S,4R,5R)-5-(6-Amino-9H-purin-9-yl)-3,4-dihydroxy-tetrahydrofuran-2-yl)methyl)-4-methyl-3-nitrobenzenesulfon amide]
inhibition of nsp14/10 (nsp14/10 [2]): low micromolar range

Compound: Nc1ncnc2c1ncn2[C@@H]1O[C@H](CNC(=O)Cc2cccc(F)c2Br)[C@@H](O)[C@H]1O [Compound 63, N-(((2R,3S,4R,5R)-5-(6-Amino-9H-purin-9-yl)-3,4-dihydroxytetra hydrofuran-2-yl)methyl)-2-(2-bromo-3-fluorophenyl)acetamide]
Kd (SARS-CoV-2 nsp14/10; [16]): 17200 ± 5500 nM

Compound: Cc1cccc(-c2cncc(C(=O)NC[C@H]3O[C@@H](n4cnc5c(N)ncnc54)[C@H](O)[C@@H]3O)c2)c1 [Compound 64, N-(((2R,3S,4R,5R)-5-(6-Amino-9H-purin-9-yl)-3,4-dihydroxytetra hydrofuran-2-yl)methyl)-5-(m-tolyl)nicotinamide]
Kd (SARS-CoV-2 nsp14/10; [16]): 2900 ± 380 nM

Compound: Nc1ncnc2c1ncn2[C@@H]1O[C@H](CNS(=O)(=O)Cc2ccc3ccccc3c2)[C@@H](O)[C@H]1O [Compound 65, N-(((2R,3S,4R,5R)-5-(6-Amino-9H-purin-9-yl)-3,4-dihydroxytetra hydrofuran-2-yl)methyl)-1-(naphthalen-2-yl)methanesulfon amide]
Kd (SARS-CoV-2 nsp14/10; [16]): 3800 ± 780 nM

Compound: Nc1ncnc2c1ncn2[C@@H]1O[C@H](CNS(=O)(=O)Cc2ccccc2)[C@@H](O)[C@H]1O [Compound 66, N-(((2R,3S,4R,5R)-5-(6-Amino-9H-purin-9-yl)-3,4-dihydroxytetra hydrofuran-2-yl)methyl)-1-phenylmethanesulfonamide]
Kd (SARS-CoV-2 nsp14/10; [16]): 42300 ± 11100 nM

Compound: Nc1ncnc2c1ncn2[C@@H]1O[C@H](CN(CC[C@H](N)C(=O)O)Cc2cn(CCNC(=O)c3ccc4c(c3)C(=O)OC43c4ccc(O)cc4Oc4cc(O)ccc43)nn2)[C@@H](O)[C@H]1O [FTAD, 5-FAM-triazolyl-adenosyl-diaminobutyric acid]
Kd (nsp14/10 [4]): 1200 ± 100 nM
Kd (SARS-CoV-2 nsp14/10; 2-fold dilution series of nsp14/10 from 3.00 μM to 46.9 nM, read-out: KD(FTAD, nsp14/10), FP-assay): 1300 ± 300 nM
Kd (human DNMT2): 6400 ± 700 nM
Kd (METTL3/14 [5]): 1100 ± 100 nM

total intensity, raw data (METTL3/14 [1]; [14]): 15527 and 14218 and 14357
fluorescence polarization, raw data (METTL3/14 [1]; [15]): 13 mP and 7 mP and 8 mP
Compound: Nc1ncnc2c1ncn2[C@@H]1O[C@H](CSCC[C@H](N)C(=O)O)[C@@H](O)[C@H]1O [SAH, S-adenosyl-L-homocysteine, reference compound]

Compound: Nc1ncnc2c1ncn2[C@@H]1O[C@H](C[C@@H](N)CC[C@H](N)C(=O)O)[C@@H](O)[C@H]1O [SFG, sinefungin, reference compound]
displacement of FTAD (METTL3/14 [1]): 92%
